Laboratory results: patent US9815851B2, “Pyrrolo carboxamides as modulators of orphan nuclear receptor RAR-related orphan receptor-gamma (RORγ, NR1F3) activity and for the treatment of chronic inflammatory and autoimmune diseases” (PHENEX PHARMACEUTICALS AG, priority 2011, dated 2017)
Read-outs that look alike come from different tables or passages of the source.

Columns and labels:
[1] = molecular target: T1, RORγ ligand binding domain (LBD) (Homo sapiens, UniProt P51449); experiment: TR-FRET Activity Assay (ligand sensing, RORγ-LBD / coactivator peptide interaction, LANCE); type: biochemical
T1 construct: made in house; host or cells: E. coli BL-21 (BL3), vector pDEST15
T1 sequence (P51449 269-508 limits assumed): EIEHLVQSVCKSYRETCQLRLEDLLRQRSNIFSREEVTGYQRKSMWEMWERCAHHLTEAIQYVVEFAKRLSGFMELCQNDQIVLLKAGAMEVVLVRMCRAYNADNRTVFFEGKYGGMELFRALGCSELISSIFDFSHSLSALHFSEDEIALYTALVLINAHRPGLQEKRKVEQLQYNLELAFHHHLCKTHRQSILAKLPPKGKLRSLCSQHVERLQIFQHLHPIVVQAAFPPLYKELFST

[2] = molecular target: T2, RORγ (UniProt P51449); experiment: RORγ Gal4 Reporter Gene Assay in 293T cells (firefly and renilla luciferase); type: cell-based, human
T2 sequence (P51449 1-518): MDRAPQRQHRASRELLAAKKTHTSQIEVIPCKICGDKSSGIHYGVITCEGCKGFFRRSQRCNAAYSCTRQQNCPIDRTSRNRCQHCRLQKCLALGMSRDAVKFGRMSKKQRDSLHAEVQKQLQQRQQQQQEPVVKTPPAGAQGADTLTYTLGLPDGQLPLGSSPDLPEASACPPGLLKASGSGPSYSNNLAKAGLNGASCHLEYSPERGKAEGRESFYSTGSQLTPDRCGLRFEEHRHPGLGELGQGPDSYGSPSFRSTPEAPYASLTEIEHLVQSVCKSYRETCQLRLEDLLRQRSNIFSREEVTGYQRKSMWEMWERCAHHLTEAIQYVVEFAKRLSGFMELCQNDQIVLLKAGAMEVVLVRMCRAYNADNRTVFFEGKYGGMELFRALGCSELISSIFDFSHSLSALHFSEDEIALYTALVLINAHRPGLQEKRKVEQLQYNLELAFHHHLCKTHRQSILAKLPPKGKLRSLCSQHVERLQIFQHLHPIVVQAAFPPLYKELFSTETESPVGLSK

[3] = first value of the cell FRET/FF/REN, TR-FRET activity assay, read-out: pIC50 (FRET) (converted)
[4] = second value of the cell, Gal4 reporter gene assay in 293T cells, firefly luciferase
[5] = third value of the cell, Gal4 reporter gene assay in 293T cells, renilla normalised luciferase

| IC50 [1, 3] [nM] | pIC50 (FF) [2, 4] | pIC50 (REN) [2, 5] | Compound | IC50 [1] [nM] | pIC50 (FF) [2] | pIC50 (REN) [2] |
| --- | --- | --- | --- | --- | --- | --- |
| 316 | 6.8 | 7.0 | Cc1c(C(=O)N[C@H]2C[C@](C)(C(=O)O)C2)cc(-c2ccc(S(=O)(=O)NC(C)(C)C)c(C(F)F)c2)n1CC1CCCCC1 [17/170] |  |  |  |
| 316 | 7.3 | 7.3 | Cc1c(C(=O)NCC(C)(C)C(=O)O)cc(-c2ccc(S(=O)(=O)NC(C)(C)C)c(OC(F)(F)F)c2)n1CC1CCCCC1 [17/173] |  |  |  |
| 200 | 7.1 | 7.1 | Cc1c(C(=O)N[C@H]2C[C@H](C(=O)O)C2)cc(-c2ccc(S(=O)(=O)NC(C)(C)C)c(OC(F)(F)F)c2)n1CC1CCCCC1 [17/174] |  |  |  |
| 794 | 7.9 | 7.9 | Cc1c(C(=O)NCCc2noc(=O)[nH]2)cc(-c2cc(C(C)(C)C)cc(C3(C)CC3)c2)n1CC1CCCCC1 [17/178] |  |  |  |
| 794 | 6.9 | 7.1 | Cc1c(C(=O)N[C@H]2C[C@H](C(=O)O)C2)cc(-c2ccc(S(=O)(=O)NC(C)(C)C)c3sccc23)n1CC1CCCCC1 [17/184] |  |  |  |
| 15800 | < 4.7 | < 4.7 | Cc1c(C(=O)N[C@H]2C[C@H](C(=O)O)C2)cc(-c2cc(C(C)(C)O)cc3ccccc23)n1CC1CCCCC1 [17/187] |  |  |  |
| 5010 | 6.3 | 6.3 | Cc1c(C(=O)N[C@H]2C[C@H](C(=O)O)C2)cc(-c2cc(C(=O)NC(C)(C)C)cc3ccccc23)n1CC1CCCCC1 [17/189] |  |  |  |
| 1580 | 6.5 | 6.4 | Cc1cc(C(C)(C)C)cc(-c2cc(C(=O)NCC(C)(C)O)c(C)n2CC2CCCCC2)c1OC(F)F [17/192] |  |  |  |
| 2510 | 6.9 | 7.0 | Cc1c(C(=O)N[C@H]2C[C@H](C(=O)O)C2)cc(-c2cc(C(C)(C)C)cc(C(C)(C)C)c2OC(F)F)n1CC1CCCCC1 [17/193] |  |  |  |
| 12600 | 6.4 | 6.5 | Cc1cc(C(C)(C)C)cc(-c2cc(C(=O)N[C@H]3C[C@H](C(=O)O)C3)c(C)n2CC2CCCCC2)c1OC(F)F [17/194] |  |  |  |
| 631 | 7.6 | 7.6 | Cc1c(C(=O)N[C@H]2C[C@H](C(=O)O)C2)cc(-c2cc(OCC(C)(C)C)nc(C(C)(C)C)c2)n1CC1CCCCC1 [17/195] |  |  |  |
| 3980 | 7.0 | 7.0 | Cc1c(C(=O)N[C@H]2C[C@H](C(=O)O)C2)cc(-c2cc(NCC(C)(C)C)nc(C(C)(C)C)c2)n1CC1CCCCC1 [17/196] |  |  |  |
| 794 | 7.9 | 7.7 | CCC(C)(C)NS(=O)(=O)c1ccc(-c2cc(C(=O)N[C@H]3C[C@H](C(=O)O)C3)c(C)n2CC2CCCCC2)c(Cl)c1C [17/197] |  |  |  |

The next lines start with the compound.

| Compound | IC50 [1, 3] [nM] | pIC50 (FF) [2, 4] | pIC50 (REN) [2, 5] | IC50 [1] [nM] | pIC50 (FF) [2] | pIC50 (REN) [2] |
| --- | --- | --- | --- | --- | --- | --- |
| Cc1c(C(=O)NCCC(C)(C)C(=O)O)cc(-c2ccc(S(=O)(=O)NC(C)(C)C)c(OC(F)(F)F)c2)n1CC1CCCCC1 [17/172] | 398 | 7.5 | 7.5 |  |  |  |
| Cc1c(C(=O)NC2CCOCC2)cc(-c2ccc(S(=O)(=O)NC(C)(C)C)c(C(F)(F)F)c2)n1C1CC12CCCC2 (stereo not drawn) [17/175] | 794 | 6.6 | 6.7 |  |  |  |
| Cc1c(C(=O)NC2CCOCC2)cc(-c2ccc(S(=O)(=O)NC(C)(C)C)c(C(F)(F)F)c2)n1CC1(C)CCCC1 [17/176] | 251 | 7.1 | 7.0 |  |  |  |
| Cc1c(C(=O)NC2CCOCC2)cc(-c2ccc(S(=O)(=O)NC(C)(C)C)c(C(F)(F)F)c2)n1CC1CC(C)C1 (stereo not drawn) [17/177] | 158 | 7.3 | 7.4 |  |  |  |
| Cc1c(C(=O)N2CC(CC(=O)O)C2)cc(-c2ccc(S(=O)(=O)NC(C)(C)C)c(C(F)(F)F)c2)n1CC1CCCCC1 [17/179] | 398 | 6.1 | 6.1 |  |  |  |
| Cc1c(C(=O)N2CC(C(C)(C)C(=O)O)C2)cc(-c2ccc(S(=O)(=O)NC(C)(C)C)c(C(F)(F)F)c2)n1CC1CCCCC1 [17/180] | 631 | 7.1 | 7.2 |  |  |  |
| Cc1c(C(=O)NC23CCC(C(=O)O)(CC2)CC3)cc(-c2ccc(S(=O)(=O)NC(C)(C)C)c(C(F)(F)F)c2)n1CC1CCCCC1 [17/182] |  |  |  | 501 | 6.3/7.8/7.9 | 6.3/7.8/7.9 |
| Cc1c(C(=O)NC2CCOCC2)cc(-c2ccc(S(=O)(=O)NC(C)(C)C)c3sccc23)n1CC1CCCCC1 [17/183] | 200 | 7.9 | 8.1 |  |  |  |
| Cc1c(C(=O)NC2CCOCC2)cc(-c2cc(C(C)(C)O)cc3ccccc23)n1CC1CCCCC1 [17/185] |  |  |  | 501 | 6.3/6.4/6.2 | 6.3/6.4/6.2 |
| COC(C)(c1cc(-c2cc(C(=O)NC3CCOCC3)c(C)n2CC2CCCCC2)cc(C(C)(C)C)c1)C(F)(F)F (stereo not drawn) [17/186] | 398 | 6.9 | 7.1 |  |  |  |
| Cc1c(C(=O)NC2CCOCC2)cc(-c2cc(C(=O)NC(C)(C)C)cc3ccccc23)n1CC1CCCCC1 [17/188] | 794 | 6.8 | 6.9 |  |  |  |
| Cc1c(C(=O)NC2CCOCC2)cc(-c2cnc(S(=O)(=O)NC(C)(C)C)c(C(F)(F)F)c2)n1CC1CCCCC1 [17/190] | 1580 | 6.5 | 6.6 |  |  |  |
| Cc1c(C(=O)NCC(C)(C)O)cc(-c2cc(C(C)(C)C)cc(C(C)(C)C)c2OC(F)F)n1CC1CCCCC1 [17/191] |  |  |  | 1260 | 5.9/7.0/6.9 | 5.9/7.0/6.9 |
| Cc1c(C(=O)N2CCOCC2)cc(-c2ccc(S(=O)(=O)NC(C)(C)C)c(C(F)(F)F)c2)n1CC1CCCCC1 [17/198] |  |  |  | 501 | 6.3/6.8/6.9 | 6.3/6.8/6.9 |
| Cc1c(C(=O)N2CCS(=O)(=O)CC2)cc(-c2ccc(S(=O)(=O)NC(C)(C)C)c(C(F)(F)F)c2)n1CC1CCCCC1 [17/199] | 631 | 6.6 | 6.7 |  |  |  |
| Cc1c(C(=O)NCC(C)(C)C(=O)O)cc(-c2ccc(S(=O)(=O)NC(C)(C)C)c(C(F)(F)F)c2)n1CC1CCCCC1 [17/200] | 501 | 6.9 | 6.9 |  |  |  |
| Cc1c(C(=O)NCC2(C(=O)O)CCOCC2)cc(-c2ccc(S(=O)(=O)NC(C)(C)C)c(C(F)(F)F)c2)n1CC1CCCCC1 [17/201] | 794 | 5.7 | 5.7 |  |  |  |
| Cc1c(C(=O)NCC(C)(C)C(N)=O)cc(-c2ccc(S(=O)(=O)NC(C)(C)C)c(C(F)(F)F)c2)n1CC1CCCCC1 [17/202] | 316 | 7.7 | 7.7 |  |  |  |
| Cc1c(C(=O)NCC2(C(N)=O)CCOCC2)cc(-c2ccc(S(=O)(=O)NC(C)(C)C)c(C(F)(F)F)c2)n1CC1CCCCC1 [17/203] | 501 | 7.8 | 7.8 |  |  |  |
| CNC(=O)C(C)(C)CNC(=O)c1cc(-c2ccc(S(=O)(=O)NC(C)(C)C)c(C(F)(F)F)c2)n(CC2CCCCC2)c1C [17/204] | 794 | 6.7 | 6.8 |  |  |  |
| CNC(=O)C1(CNC(=O)c2cc(-c3ccc(S(=O)(=O)NC(C)(C)C)c(C(F)(F)F)c3)n(CC3CCCCC3)c2C)CCOCC1 [17/205] | 794 | 6.9 | 7.0 |  |  |  |
| Cc1c(C(=O)NC2(C)CCOCC2)cc(-c2ccc(S(=O)(=O)NC(C)(C)C)c(C(C)(C)C)c2)n1CC1CCCCC1 [17/206] |  |  |  | 631 | 6.2/7.0/7.2 | 6.2/7.0/7.2 |
| Cc1c(C(=O)NC2CC23CCOCC3)cc(-c2ccc(S(=O)(=O)NC(C)(C)C)c(C(C)(C)C)c2)n1CC1CCCCC1 (stereo not drawn) [17/207] | 501 | 7.9 | 8.0 |  |  |  |
| Cc1c(C(=O)NC2(C#N)CCOCC2)cc(-c2ccc(S(=O)(=O)NC(C)(C)C)c(C(C)(C)C)c2)n1CC1CCCCC1 [17/208] |  |  |  | 398 | 6.4/6.6/6.6 | 6.4/6.6/6.6 |
| Cc1c(C(=O)NC2(C)CCOCC2)cc(-c2ccc(S(=O)(=O)NC(C)(C)C)c(C(F)(F)F)c2)n1CC1CCCCC1 [17/209] |  |  |  | 200 | 6.7/7.3/7.6 | 6.7/7.3/7.6 |
| Cc1c(C(=O)NC2CC23CCOCC3)cc(-c2ccc(S(=O)(=O)NC(C)(C)C)c(C(F)(F)F)c2)n1CC1CCCCC1 (stereo not drawn) [17/210] | 158 | 7.9 | 8.1 |  |  |  |
| Cc1c(C(=O)N2CC3(CCOCC3)C2)cc(-c2ccc(S(=O)(=O)NC(C)(C)C)c(C(F)(F)F)c2)n1CC1CCCCC1 [17/211] | 501 | 8.0 | 8.0 |  |  |  |
